IC50 data for 59 molecules are collected here from US20250064789A1, “KETOAMIDE DERIVATIVES AND PHARMACEUTICAL USES THEREOF” (priority 2022, published 2025).

Molecules are shown by their SMILES.

The first assay has as its target recombinant SARS-CoV-2 M^pro (Severe acute respiratory syndrome coronavirus 2 (2019-nCoV) (SARS-CoV-2), UniProt P0DTD1). Briefly: Inhibition of SARS-CoV-2 M^pro enzyme activity (fluorescent substrate assay). The class given is biochemical. To be noted: inhibition of SARS-CoV-2 M^pro enzyme activity; values given in μM; read-out: IC50.
In general, IC50 refers to the concentration that gives 50% inhibition. With `C[C@@H](OCc1ccccc1)C(=O)N[C@H](Cc1ccccc1)C(=O)C(=O)N[C@H](C)c1ccccn1` [Compound 31], the IC50 was more than 5 µM.

For the molecule `O=C(CNC(=O)c1cccnc1)N[C@H](Cc1ccccc1)C(=O)C(=O)NCc1nccs1` [Compound 480], the IC50 stood at 2.23 ± 0.37 µM.

In the case of `O=C(NCc1cocn1)C(=O)[C@@H](Cc1ccccc1)NC(=O)c1ccccc1` [Compound 458], the IC50 worked out at 11.4 ± 0.08 µM.

Regarding `O=C(NCc1ccccn1)C(=O)[C@@H](Cc1ccccc1)NC(=O)[C@@H]1CC2(CC2)CN1C(=O)C1CCC(F)(F)CC1` [Compound 272], the IC50 was more than 2.5 µM.

In the case of `C[C@@H](OCc1ccccc1)C(=O)N[C@H](Cc1ccccc1)C(=O)C(=O)NCc1ncccn1` [Compound 29], the IC50 was more than 5 µM.

Take `COc1cccnc1CNC(=O)C(=O)[C@@H](Cc1ccccc1)NC(=O)[C@@H](C)NC(=O)C1CCC(F)(F)CC1` [Compound 339]: the IC50 stood at 6.13 ± 0.22 µM.

As to `C[C@@H](NC(=O)C1CCC(F)(F)CC1)C(=O)N[C@H](Cc1ccccc1)C(=O)C(=O)NCc1c[nH]cn1` [Compound 346], the IC50 was more than 2.5 µM.

On to `C[C@@H](OCc1ccccc1)C(=O)N[C@H](Cc1ccccc1)C(=O)C(=O)NCc1ccncn1` [Compound 30], for which the IC50 is more than 5 µM.

As for `O=C(NCc1nccs1)C(=O)[C@@H](Cc1ccccc1)NC(=O)c1ccccc1` [Compound 454], the IC50 is 1.3 ± 0.07 µM.

The same assay, now with this note: inhibition of SARS-CoV-2 M^pro enzyme activity; values in nM; read-out: IC50.
As to `COC[C@@H](NC(=O)C1CCC(F)(F)CC1)C(=O)N[C@H](Cc1ccccc1)C(=O)C(=O)NCc1cscn1` [Compound 431], the IC50 turned out to be 0.2337 ± 0.0018 µM.

Regarding `O=C(NCc1ccccn1)C(=O)[C@@H](Cc1ccccc1)NC(=O)C(NC(=O)c1ccc(F)cc1)C(F)(F)F` (some centres unmarked) [Compound 249], the IC50 was 0.256 ± 0.0064 µM.

As for `COC[C@@H](NC(=O)c1ccc(F)cc1)C(=O)N[C@H](Cc1ccccc1)C(=O)C(=O)NCc1ccccn1` [Compound 253], the IC50 stood at 0.0224 ± 0.0014 µM.

Turning to `O=C(Cn1cc(-c2ccc(F)c(Cl)c2)c(C(F)(F)F)n1)N[C@H](Cc1ccccc1)C(=O)C(=O)NCc1nccs1` [Compound 500], the IC50 came to 0.0389 ± 0.0005 µM.

Take `O=C(NCc1ccccn1)C(=O)[C@@H](Cc1ccccc1)NC(=O)C1(NC(=O)[C@@H]2C[C@@H]3[C@H](C2)C3(F)F)CCC1` [Compound 202]: the IC50 is 0.0174 ± 0.0012 µM.

Consider `O=C(NCc1ccccn1)C(=O)[C@@H](Cc1ccccc1)NC(=O)C1(NC(=O)C2CCC(F)(F)CC2)CCC1` [Compound 187], for which the IC50 turned out to be 0.0107 ± 0.0005 µM.

As to `COc1ccc(CCC(=O)N[C@H](C)C(=O)N[C@H](Cc2ccccc2)C(=O)C(=O)NCc2ccccn2)cc1` [Compound 67], the IC50 amounted to 0.0173 ± 0.0016 µM.

For the molecule `CN(C)CC(NC(=O)C1CCC(F)(F)CC1)C(=O)N[C@H](Cc1ccccc1)C(=O)C(=O)NCc1ccccn1` (some centres unmarked) [Compound 232], the IC50 turned out to be 0.0607 ± 0.0001 µM.

Consider `O=C(NCc1ccccn1)C(=O)[C@@H](Cc1ccccc1)NC(=O)C1(NC(=O)C2C3COCC32)CCC1` (some centres unmarked) [Compound 211], for which the IC50 is 0.0577 ± 0.003 µM.

`C[C@@H](NC(=O)COc1ccc(F)cc1)C(=O)N[C@H](Cc1ccccc1)C(=O)C(=O)NCc1ccccn1` [Compound 148]: the IC50 came out at 0.0117 ± 0.0024 µM.

As to `C[C@@H](NC(=O)C1CCS(=O)(=O)CC1)C(=O)N[C@H](Cc1ccccc1)C(=O)C(=O)NCc1ccccn1` [Compound 116], the 50% inhibitory concentration (IC50) is 0.1301 ± 0.0004 µM.

As to `O=C(COc1ccccc1)N[C@H](Cc1ccccc1)C(=O)C(=O)NCc1nccs1` [Compound 476], the IC50 came out at 0.8808 ± 0.0012 µM.

With `C[C@@H](NS(=O)(=O)c1ccc(F)cc1)C(=O)N[C@H](Cc1ccccc1)C(=O)C(=O)NCc1ccccn1` [Compound 331, (R)-3-((R)-2-((4-fluorophenyl)sulfonamido)propionamido)-2-oxo-4-phenyl-N-(pyridin-2-ylmethyl)butyramide], the IC50 worked out at 0.101 ± 0.0028 µM.

As for `C[C@@H](NC(=O)CC1CC(F)(F)C1)C(=O)N[C@H](Cc1ccccc1)C(=O)C(=O)NCc1ccccn1` [Compound 134], the IC50 came to 0.0245 µM.

Consider `COC[C@@H](NC(=O)C1CCCC(F)(F)C1)C(=O)N[C@H](Cc1ccccc1)C(=O)C(=O)NCc1ncsn1` (some centres unmarked) [Compound 564], for which the IC50 was found to be 0.774 ± 0.0088 µM.

Regarding `O=C(CC1CC(F)(F)C1)NC1(C(=O)N[C@H](Cc2ccccc2)C(=O)C(=O)NCc2ccccn2)CCC1` [Compound 209], the IC50 came to 0.0122 ± 0.0002 µM.

Take `O=C(NCc1ccccn1)C(=O)[C@@H](Cc1ccccc1)NC(=O)[C@H](NC(=O)C1CCC(F)(F)CC1)C1CCCC1` [Compound 226]: the IC50 was found to be 0.016 ± 0.0008 µM.

In the case of `O=C(NCc1ccccn1)C(=O)[C@@H](Cc1ccccc1)NC(=O)[C@H]1CCCCN1C(=O)CC1CCC(F)(F)CC1` [Compound 283], the IC50 was 0.0146 µM.

As to `C[C@@H](OCc1cc(F)cc(Cl)c1)C(=O)N[C@H](Cc1ccccc1)C(=O)C(=O)NCc1ccc(Cl)cn1` [Compound 46], the IC50 was found to be 0.0133 ± 0.0001 µM.

As to `C[C@@H](NC(=O)C(F)Oc1ccc(Cl)cc1Cl)C(=O)N[C@H](Cc1ccccc1)C(=O)C(=O)NCc1ccccn1` (some centres unmarked) [Compound 94], the IC50 was found to be 0.0135 ± 0.0013 µM.

Turning to `C[C@@H](NC(=O)C1CC12CCC(F)(F)CC2)C(=O)N[C@H](Cc1ccccc1)C(=O)C(=O)NCc1nccs1` (some centres unmarked) [Compound 372], the IC50 is 0.0106 ± 0.0004 µM.

`O=C(Cn1cc(-c2ccc(F)c(Cl)c2)cn1)N[C@H](Cc1ccccc1)C(=O)C(=O)NCc1nccs1` [Compound 497]: the IC50 was found to be 0.036 ± 0.0024 µM.

For `C[C@@H](NC(=O)[C@@H](NC(=O)NC1(CS(=O)(=O)C(C)(C)C)CCCCC1)C(C)(C)C)C(=O)N[C@H](Cc1ccccc1)C(=O)C(=O)NCc1ccccn1` [Compound 113], the IC50 is 0.0691 ± 0.0081 µM.

As to `O=C(CNC(=O)C1CCCC(F)(F)C1)N[C@H](Cc1ccccc1)C(=O)C(=O)NCc1cscn1` (some centres unmarked) [Compound 430], the IC50 was 0.02 ± 0.0005 µM.

Take `C[C@@H](NC(=O)C1CCC(F)(F)CC1)C(=O)N[C@H](Cc1ccc(F)cc1)C(=O)C(=O)NCc1ccccn1` [Compound 359]: the IC50 was determined as 0.0364 ± 0.0019 µM.

Consider `O=C(NCc1ccccn1)C(=O)[C@@H](Cc1ccccc1)NC(=O)[C@H](NC(=O)C1CCC(F)(F)CC1)C1CCOCC1` [Compound 230], for which the IC50 was 0.0645 ± 0.0007 µM.

For the molecule `Cc1nn(CC(=O)N[C@H](Cc2ccccc2)C(=O)C(=O)NCc2nccs2)c(C)c1-c1ccc(F)c(Cl)c1` [Compound 499], the concentration for half-maximal inhibition (IC50) came to 0.0329 ± 0.0015 µM.

`O=C(CC1CC1(F)F)NCC(=O)N[C@H](Cc1ccccc1)C(=O)C(=O)NCc1cscn1` (some centres unmarked) [Compound 425]: the IC50 turned out to be 0.0365 ± 0.0003 µM.

Regarding `C[C@@H](NC(=O)C1(F)CCCCC1)C(=O)N[C@H](Cc1ccccc1)C(=O)C(=O)NCc1nccs1` [Compound 374], the IC50 amounted to 0.0208 ± 0.0016 µM.

`O=C(NCc1ccccn1)C(=O)[C@@H](Cc1ccccc1)NC(=O)C1c2ccccc2CN1C(=O)C1CCC(F)(F)CC1` (some centres unmarked) [Compound 266]: the IC50 turned out to be 0.0344 ± 0.0023 µM.

For `O=C(CC12CC3CC(CC(C3)C1)C2)NC1(C(=O)N[C@H](Cc2ccccc2)C(=O)C(=O)NCc2ccccn2)CCC1` [Compound 196], the IC50 came out at 0.0145 ± 0.0001 µM.

On to `C[C@@H](NC(=O)CC1CC1(F)F)C(=O)N[C@H](Cc1ccccc1)C(=O)C(=O)NCc1nccs1` (some centres unmarked) [Compound 376], for which the concentration for half-maximal inhibition (IC50) came out at 0.0352 ± 0.0036 µM.

For the molecule `COC(=O)C[C@@H](NC(=O)CC1CC(F)(F)C1)C(=O)N[C@H](Cc1ccccc1)C(=O)C(=O)NCc1nccs1` [Compound 574], the IC50 came out at 0.0144 ± 0.0008 µM.

On to `O=C(NCc1ccccn1)C(=O)[C@@H](Cc1ccccc1)NC(=O)C1(C(=O)NCC2CCC(F)(F)CC2)CC1` [Compound 320], for which the IC50 stood at 0.0167 ± 0.0003 µM.

For the molecule `CC[C@@H](OCc1ccc(F)cc1)C(=O)N[C@H](Cc1ccccc1)C(=O)C(=O)NCc1ccc(Cl)cn1` [Compound 48], the IC50 came out at 0.0309 ± 0.0003 µM.

In the case of `O=C(CNC(=O)C1CCCCC1)N[C@H](Cc1ccccc1)C(=O)C(=O)NCc1ccccn1` [Compound 445], the IC50 was 0.0218 ± 0.0003 µM.

Regarding `O=C(Cc1noc(-c2ccc(F)c(C(F)(F)F)c2)n1)N[C@H](Cc1ccccc1)C(=O)C(=O)NCc1nccs1` [Compound 524], the IC50 is 0.0328 ± 0.0032 µM.

Turning to `O=C(NCc1ccccn1)C(=O)[C@@H](Cc1ccccc1)NC(=O)C1(NC(=O)c2cc(Br)cc(OC(F)(F)F)c2)CC1` [Compound 163], the IC50 was determined as 0.0208 ± 0.0007 µM.

Turning to `O=C(Cn1cc(-c2cccc(F)c2)cn1)N[C@H](Cc1ccccc1)C(=O)C(=O)NCc1nccs1` [Compound 492], the IC50 is 0.0663 ± 0.0061 µM.

Regarding `C[C@@H](NC(=O)[C@@H]1C[C@@H]2[C@H](C1)C2(F)F)C(=O)N[C@H](Cc1ccccc1)C(=O)C(=O)NCc1cscn1` [Compound 420], the IC50 was 0.0108 ± 0.0007 µM.

Consider `O=C(NCc1nccs1)C(=O)[C@@H](Cc1ccccc1)NC(=O)C1(n2ccc(C3CCC(F)(F)CC3)n2)CC1` [Compound 512], for which the IC50 amounted to 0.0221 ± 0.0005 µM.

Take `CC[C@@H](C)C(NC(=O)c1ccc(F)cc1)C(=O)N[C@H](Cc1ccccc1)C(=O)C(=O)NCc1ccccn1` (some centres unmarked) [Compound 251]: the IC50 worked out at 0.0342 ± 0.0005 µM.

Take `C[C@@H](NC(=O)c1ccc(Cl)cc1)C(=O)N[C@H](Cc1ccccc1)C(=O)C(=O)NCc1ccccn1` [Compound 144]: the half-maximal inhibitory concentration (IC50) stood at 0.019 ± 0.0003 µM.

Consider `CC(C)(NC(=O)C1CC12CCC(F)(F)CC2)C(=O)N[C@H](Cc1ccccc1)C(=O)C(=O)NCc1ccccn1` (some centres unmarked) [Compound 176], for which the IC50 amounted to 0.0159 µM.

Regarding `O=C(Cn1cc(-c2ccc(F)nc2)cn1)N[C@H](Cc1ccccc1)C(=O)C(=O)NCc1nccs1` [Compound 493], the IC50 was found to be 0.4515 ± 0.0023 µM.

Take `NC(=O)C[C@@H](NC(=O)c1ccc(F)cc1)C(=O)N[C@H](Cc1ccccc1)C(=O)C(=O)NCc1ccccn1` [Compound 254]: the IC50 came out at 0.0455 ± 0.0031 µM.

Regarding `C[C@@H](NC(=O)/C=C/c1ccc(F)cc1)C(=O)N[C@H](Cc1ccccc1)C(=O)C(=O)NCc1ccccn1` [Compound 109], the IC50 was found to be 0.1689 ± 0.0001 µM.

For the molecule `O=C(NCc1nccs1)C(=O)[C@@H](Cc1ccccc1)NC(=O)[C@H]1COCCN1C(=O)C1CCCC(F)(F)C1` (some centres unmarked) [Compound 410], the IC50 was 0.0253 ± 0.0017 µM.

`C[C@@H](OCc1ccc(Cl)c(Cl)c1)C(=O)N[C@H](Cc1ccccc1)C(=O)C(=O)NCc1ccccn1` [Compound 12]: the IC50 stood at 0.0123 ± 0.0008 µM.

As for `CC(C)(NC(=O)c1ccc2c(c1)OC(F)(F)O2)C(=O)N[C@H](Cc1ccccc1)C(=O)C(=O)NCc1ccccn1` [Compound 182], the IC50 amounted to 0.0224 ± 0.0005 µM.
